Assay results from PubChem BioAssay AID2384 (Southern Research Specialized Biocontainment Screening …, 2010).

Test system: S. typhi GFP reporter counter-screen, fluorescence, 4 h
Assay: inhibitors in S. typhi counter-screen strain, dose response, counter-screen for PhoP regulon inhibitor project, fluorescence, 4 h (AID 2384)

| SMILES | IC50 [µM] |
| --- | --- |
| CCOc1cc(CNC(C)(C)CO)cc(Br)c1OCc1ccc(Cl)cc1Cl | 37.3 |
| CC(NCc1ccc(-c2ccccc2)cc1)C(O)c1ccccc1 (stereo not drawn) | 39 |
| CCN(CC)C(=S)SSC(=S)N(CC)CC | 74.7 |
| Fc1ccc(CCNCc2ccc(Cl)c(Cl)c2)cc1 | 36.6 |
| N#C/C(=C(/O)c1ccco1)c1nc2ccccc2s1 | 57.6 |
| O=C(N/N=C/c1ccc([N+](=O)[O-])s1)C(O)c1ccccc1 (stereo not drawn) | 32.1 |
| CN(C)CCCNc1cc(C(C)(C)C)nc2c(-c3ccc(Cl)cc3)cnn12 | 18.7 |
| O=C(N/N=C/c1cc(Br)ccc1O)c1ccncc1 | 20.6 |
| Nc1ncncc1-c1ccc(Cl)cc1 | 65.5 |
| CN1CCc2nc(SCC(=O)Nc3ccc(Cl)cc3)c(C#N)cc2C1 | 93.5 |
| O=c1[nH]c(=S)ccn1C1OC(CO)C(O)C1O (stereo not drawn) | 12.4 |
| CCc1ccc(Nc2n[n+](-c3ccccc3)c(-c3c(Cl)cccc3Cl)s2)cc1 | 41.3 |
| CCCCCCCCCCCCCCCC[N+](C)(C)CCN(Cc1ccc(OC)cc1)c1ncccn1 | 19.1 |
| O=C(Nc1cccc(Cl)c1)Nc1nccs1 | 57.3 |
| Nc1cc(Cl)c2nonc2c1[N+](=O)[O-] | 32.6 |
| O=C(C[n+]1ccc(-c2ccccc2)cc1)Nc1ccc([N+](=O)[O-])cc1 | 26.3 |
| CCCCOc1ccc(NC2=NC3(CCCCC3)N=C(N)N2)cc1 | 34.7 |
| O=C(N/N=C/c1sc2ccccc2c1O)c1cccc2ccccc12 | 25.8 |
| CC[n+]1c(/C=C/C=C/c2ccc(N(C)C)cc2)sc2ccccc21 | 128 |
| CCCOc1ccc(C(=O)NNC(=S)NC(=O)c2ccco2)cc1 | 36.8 |
| O=C(NC(=S)NNC(=O)c1cccs1)c1ccc(Br)o1 | 60.2 |
| Cc1oc2c(O)c(O)ccc2c(=O)c1-c1ccccc1 | 100 |
| C#CCOCCOCCOCCNc1nc(N2CCN(C(=O)CCCCCCCCCCNC(=O)[C@H]([C@@H](C)CC)n3cc(CCCCN=C(N)N)nn3)CC2)nc(N2CCN(C(=O)CCCCCCCCCCNC(=O)[C@H](CCCCN)n3cc(C)nn3)CC2)n1 | 47.3 |
| CN1CCN(C(c2ccc(C(F)(F)F)cc2)c2ccc3cccnc3c2O)CC1 (stereo not drawn) | 21.8 |
| Nc1nc(Nc2cccc(F)c2)nc2ccccc12 | 22.5 |
| Cc1cc2oc(=O)cc(CN3CCN(C/C=C/c4ccccc4)CC3)c2cc1O | 92.9 |
| COc1cccc(Nc2nc(NCCO)c3ccccc3n2)c1 | 57.8 |

| SMILES | IC50 [µM] |
| --- | --- |
| C#CCOCCOCCOCCNc1nc(N2CCN(C(=O)[C@H](Cc3cc4ccccc4[nH]3)n3cc([C@@H](N)C(C)CC)nn3)CC2)nc(N2CCN(C(=O)[C@H](Cc3cc4ccccc4[nH]3)n3cc([C@@H](N)Cc4ccc(O)cc4)nn3)CC2)n1 (stereo partly drawn) | 18.5 |
| Cn1c(-c2ccc3c(c2)OCO3)cnc1NCc1ccc(Cl)cc1 | 76.3 |
| CC[C@@H](C)[C@H](CNC)NC[C@@H](Cc1cccc2ccccc12)NCCc1cccc(C(F)(F)F)c1 | 18.8 |
| Nc1ncn([C@@H]2O[C@H](CO)[C@@H](O)[C@H]2O)c(=O)n1 | 46.2 |
| C#CCOCCOCCOCCNc1nc(N2CCN(C(=O)[C@H](Cc3cc4ccccc4[nH]3)n3cc([C@@H](N)C(C)CC)nn3)CC2)nc(N2CCN(C(=O)[C@H](Cc3cc4ccccc4[nH]3)n3cc([C@@H](N)CC(C)C)nn3)CC2)n1 (stereo partly drawn) | 24.1 |
| CCN1CCN(C(=O)Nc2ccc(Cc3ccc(NC(=O)N4CCN(CC)CC4)cc3)cc2)CC1 | 97.4 |
| Cc1cc(C(C)(C)CC(C)(C)C)ccc1OCCOCC[N+](C)(C)Cc1ccccc1 | 16.8 |
| Cc1cc(C)c2nc(C)cc(N/N=C/c3ccc(O)cc3)c2c1 | 57.9 |
| CCCCCCCCCCCCCCCC[N+](C)(C)CC | 19.3 |
| Nc1nc(F)nc2c1ncn2[C@@H]1O[C@H](CO)[C@@H](O)[C@H]1O | 24.1 |
| O=C(C[n+]1cc(Br)cc2ccccc21)c1ccc(Cl)cc1 | 32.7 |
| Oc1ccc(CN2CCCc3ccccc32)c2cccnc12 | 57.2 |
| Cc1ccc(C(C[N+](=O)[O-])n2nc(C)cc2C)cc1 (stereo not drawn) | 27.1 |
| CCN1CCN(CCNC(=O)c2ccc3c(c2)N(Cc2ccc(F)cc2)C(=O)/C(=C/c2ccccc2)S3)CC1 | 45.5 |
| COc1cccc(-c2nnc(NC(=O)c3ccc(Cl)s3)o2)c1 | 45.7 |
| OCCCCNCc1ccc(OCc2ccc(Cl)cc2Cl)cc1 | 56.7 |
| O=C(NC1CCCCC1)c1ccc([N+](=O)[O-])o1 | 119 |
| C[C@H]1c2cccc(O)c2C(O)=C2C(=O)C3(O)C(O)=C(C(N)=O)C(=O)[C@@H](N(C)C)[C@@H]3[C@@H](O)[C@@H]21 (stereo partly drawn) | 0.82 |
| O=C(C[n+]1cc(-c2ccccc2)n2c1CCC2)Nc1nc(-c2ccc(F)cc2)cs1 | 37 |
| CN1CCN(c2c(F)cc3c(=O)c(C(=O)O)cn4c3c2OCN4C)CC1 | < 0.55 |
| CCN(CCC(=O)Nc1ccc(Br)c(C)c1)Cc1ccccc1 | 37.9 |
| COc1c(N2CCN(C(=S)NC3CC4CCC3C4)C(C)C2)c(F)cc2c(=O)c(C(=O)O)cn(C3CC3)c12 (stereo not drawn) | 44.1 |
| CC(=O)c1cc(O)c2ccccc2c1O | 107 |
| Cc1c(N=Cc2cc(Br)cc(Br)c2O)cccc1C(=O)O | 39.5 |
| CC(=O)NC(=S)NNC(=O)c1ccc(Br)cc1 | 29.4 |
| OC(CN1CCCCC1)Cn1c2ccccc2c2cc(Br)ccc21 (stereo not drawn) | 37.8 |
